# According to paper PMC7297817, “Pharmacological Characterization of a Betaine/GABA Transporter 1 (BGT1) Inhibitor Displaying an Unusual Biphasic Inhibition Profile and Anti-seizure Effects” (Neurochemical Research, 2020):
# Read-outs that look alike come from different tables or passages of the source.
# Columns and labels:
# [1] = target: T1, M5 (Homo sapiens, UniProt P08912); assay: NIMH PDSP radioligand binding, M5
# T1 construct: purchased NIMH Psychoactive Drug Screening Program (PDSP)
# [2] = target: T2, 5-HT3 (Homo sapiens, UniProt P46098); assay: NIMH PDSP radioligand binding, 5-HT3; conditions: radioligand [3H]LY278584, n=4
# T2 construct: purchased NIMH Psychoactive Drug Screening Program (PDSP)
# T2 sequence (P46098 24-478): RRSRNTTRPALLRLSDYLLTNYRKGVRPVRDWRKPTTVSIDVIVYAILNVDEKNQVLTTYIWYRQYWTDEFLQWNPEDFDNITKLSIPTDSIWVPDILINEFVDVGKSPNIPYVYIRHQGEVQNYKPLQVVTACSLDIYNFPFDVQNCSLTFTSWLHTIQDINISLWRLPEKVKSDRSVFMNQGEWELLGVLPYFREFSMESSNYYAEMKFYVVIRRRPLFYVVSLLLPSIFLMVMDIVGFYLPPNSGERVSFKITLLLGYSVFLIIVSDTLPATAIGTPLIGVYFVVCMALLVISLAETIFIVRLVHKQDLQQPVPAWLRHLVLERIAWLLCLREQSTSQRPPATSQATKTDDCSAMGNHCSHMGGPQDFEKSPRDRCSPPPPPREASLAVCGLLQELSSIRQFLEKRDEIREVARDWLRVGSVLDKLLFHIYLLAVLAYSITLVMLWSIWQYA
# [3] = target: T3, 5-HT2A (Homo sapiens, UniProt P28223); assay: NIMH PDSP radioligand binding, 5-HT2A; conditions: radioligand [3H]ketanserin, n=4
# T3 construct: purchased NIMH Psychoactive Drug Screening Program (PDSP)
# T3 sequence (P28223 whole entry): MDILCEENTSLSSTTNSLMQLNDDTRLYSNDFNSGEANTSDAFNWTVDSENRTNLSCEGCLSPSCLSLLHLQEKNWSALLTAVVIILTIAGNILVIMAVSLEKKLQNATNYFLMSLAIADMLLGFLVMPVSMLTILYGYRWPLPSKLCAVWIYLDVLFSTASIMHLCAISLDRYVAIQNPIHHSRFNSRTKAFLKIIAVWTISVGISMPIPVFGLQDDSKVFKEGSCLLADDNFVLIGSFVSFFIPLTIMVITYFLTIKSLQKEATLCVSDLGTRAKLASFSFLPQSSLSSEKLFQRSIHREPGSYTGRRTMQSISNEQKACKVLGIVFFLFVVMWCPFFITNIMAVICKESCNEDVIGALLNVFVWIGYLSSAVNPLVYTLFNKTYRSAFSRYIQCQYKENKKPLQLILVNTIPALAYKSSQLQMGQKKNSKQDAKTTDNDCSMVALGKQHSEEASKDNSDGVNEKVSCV
# [4] = target: T4, 5-HT5A (Homo sapiens, UniProt P47898); assay: NIMH PDSP radioligand binding, 5-HT5A; conditions: radioligand [3H]LSD, n=4
# T4 construct: purchased NIMH Psychoactive Drug Screening Program (PDSP)
# T4 sequence (P47898 whole entry): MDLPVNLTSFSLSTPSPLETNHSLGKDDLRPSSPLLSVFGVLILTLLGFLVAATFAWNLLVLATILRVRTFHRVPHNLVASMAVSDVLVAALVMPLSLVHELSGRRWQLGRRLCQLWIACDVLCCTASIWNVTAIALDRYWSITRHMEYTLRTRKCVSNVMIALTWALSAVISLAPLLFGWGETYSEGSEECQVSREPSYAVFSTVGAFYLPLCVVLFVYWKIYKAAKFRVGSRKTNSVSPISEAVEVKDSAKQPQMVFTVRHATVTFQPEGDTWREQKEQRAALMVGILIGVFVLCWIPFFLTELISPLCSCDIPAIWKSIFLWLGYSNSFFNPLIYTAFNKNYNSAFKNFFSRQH
# [5] = target: T5, mBGT1 (Mus musculus, UniProt P31651); assay: [3H]GABA uptake at mBGT1 stably expressed in HEK-293 cells; format: cell-based
# T5 construct: expressed in transfected cells
# T5 sequence (P31651 1-614): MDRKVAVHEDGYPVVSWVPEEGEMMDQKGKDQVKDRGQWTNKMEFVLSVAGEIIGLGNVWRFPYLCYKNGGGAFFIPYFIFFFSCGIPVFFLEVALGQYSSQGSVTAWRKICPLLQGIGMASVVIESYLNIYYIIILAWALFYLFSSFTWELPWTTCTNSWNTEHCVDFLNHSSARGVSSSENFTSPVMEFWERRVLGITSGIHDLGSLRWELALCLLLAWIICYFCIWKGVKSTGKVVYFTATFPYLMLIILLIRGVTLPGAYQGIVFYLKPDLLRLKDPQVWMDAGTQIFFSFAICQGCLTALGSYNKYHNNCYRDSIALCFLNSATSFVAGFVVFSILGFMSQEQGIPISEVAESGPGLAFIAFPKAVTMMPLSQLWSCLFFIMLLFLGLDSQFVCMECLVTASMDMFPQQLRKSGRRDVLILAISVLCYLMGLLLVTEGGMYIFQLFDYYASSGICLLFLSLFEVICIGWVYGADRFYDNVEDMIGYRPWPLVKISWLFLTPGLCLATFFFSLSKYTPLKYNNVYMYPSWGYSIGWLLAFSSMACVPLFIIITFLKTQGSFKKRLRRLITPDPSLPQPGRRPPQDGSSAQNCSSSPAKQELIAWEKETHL
# Experimental: (§1) The HEK-293 and Flp-In CHO cell lines stably expressing mouse (m) and human (h) GATs, respectively, have been described previously and were cultured accordingly. The tsA201 cell line was used for transient expression while the MDCK II cell line express BGT1 endogenously. Both cell lines were cultured as described. tsA201 cells were transfected with DNA constructs (8 μg per 10 cm dish if not otherwise mentioned) using 40 μL PolyFect transfection reagent according to the manufacturer’s protocol (Qiagen, Venlo, Netherlands). The DNA constructs encoding hBGT1, hGAT1-3 [36], the mutated constructs hBGT1 Q299 and hGAT3 L314Q described previously, and hBGT Y453A were synthesized and sequence validated by Genscript (NJ, USA).
# (§2) The [^3H]GABA competition uptake assay was performed as previously described. A minor change, however, was introduced for uptake in MDCK II cells, in which 100 nM [^3H]GABA was used for a 15 min incubation period at 37 °C instead of 30 nM [^3H]GABA and 3 min incubation. Studies related to the inhibition curves with GABA and BPDBA at hBGT1 were obtained both with and without the presence of 10 μM ATP during the [^3H]GABA uptake assay.
# The [^3H]GABA uptake data was normalized to the percentage of total uptake in the individual experiments in the presence of the lowest compound concentration or no compound present. Data presented is the pooled data of at least three independent experiments with three technical replicates. Concentration–response curves (CRCs) were fitted with GraphPad Prism (version 8.2.1, Yosemite, GraphPad Software, San Diego, CA, USA) by non-linear regression to the sigmoidal concentration response model: Y=Bottom+(Top-Bottom)/1+10^LogIC50-X∗nH where Top is the Top plateau, Bottom is the Bottom plateau, X is the logarithm of the concentration of the compound, LogIC50 is the concentration giving a response halfway between Top and Bottom,and nH is the Hill slope.
# The best fit for CRCs obtained with the [^3H]GABA uptake assay was identified by the extra-sum-of-squares F test (for convenience referred to as F test).
# [6] = target: T6, hBGT1 Y453A (Homo sapiens, UniProt P48065, Y453A); assay: [3H]GABA uptake at hBGT1 Y453A mutant in tsA201 cells; format: cell-based; conditions: data not shown
# T6 construct: host or cells: tsA201 (transient)
# T6 sequence (P48065 whole entry Y453A): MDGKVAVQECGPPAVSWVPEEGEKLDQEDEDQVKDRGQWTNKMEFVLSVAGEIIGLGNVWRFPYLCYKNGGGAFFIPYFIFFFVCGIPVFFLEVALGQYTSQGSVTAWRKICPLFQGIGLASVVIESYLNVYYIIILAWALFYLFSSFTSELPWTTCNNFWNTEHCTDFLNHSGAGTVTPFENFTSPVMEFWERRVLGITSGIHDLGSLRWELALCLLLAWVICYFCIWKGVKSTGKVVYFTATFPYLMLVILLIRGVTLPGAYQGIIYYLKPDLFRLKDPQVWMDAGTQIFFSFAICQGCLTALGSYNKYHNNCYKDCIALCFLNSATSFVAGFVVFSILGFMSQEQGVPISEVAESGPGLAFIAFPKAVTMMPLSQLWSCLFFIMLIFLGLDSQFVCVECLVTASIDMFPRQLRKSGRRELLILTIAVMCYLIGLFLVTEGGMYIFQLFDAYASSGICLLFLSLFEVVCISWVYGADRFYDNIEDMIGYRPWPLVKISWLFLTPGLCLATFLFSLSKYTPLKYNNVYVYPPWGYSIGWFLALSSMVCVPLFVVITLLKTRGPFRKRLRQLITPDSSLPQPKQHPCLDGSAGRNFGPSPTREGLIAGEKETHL
# Experimental: as §1, §2
# The [^3H]GABA uptake data was normalized to the percentage of total uptake in the individual experiments in the presence of the lowest compound concentration or no compound present. […]
# [7] = target: T7, 5-HT2C (Homo sapiens, UniProt P28335); assay: NIMH PDSP radioligand binding, 5-HT2C; conditions: radioligand [3H]mesulergine
# T7 construct: NIMH PDSP (screening service)
# T7 sequence (P28335 33-458, species assumed): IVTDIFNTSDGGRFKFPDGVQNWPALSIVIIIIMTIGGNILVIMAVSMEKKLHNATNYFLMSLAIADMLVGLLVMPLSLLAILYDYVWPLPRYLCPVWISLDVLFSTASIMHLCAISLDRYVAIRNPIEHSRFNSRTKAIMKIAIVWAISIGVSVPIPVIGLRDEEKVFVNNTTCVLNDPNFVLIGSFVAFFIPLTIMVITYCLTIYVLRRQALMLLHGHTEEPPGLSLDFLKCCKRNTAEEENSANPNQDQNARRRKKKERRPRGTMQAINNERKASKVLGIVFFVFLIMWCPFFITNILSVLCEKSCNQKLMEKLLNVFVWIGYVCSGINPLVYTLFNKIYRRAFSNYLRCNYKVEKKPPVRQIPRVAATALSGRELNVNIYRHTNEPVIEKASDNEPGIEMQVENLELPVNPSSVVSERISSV
# [8] = target: T8, 5-HT1A (Homo sapiens, UniProt P08908); assay: NIMH PDSP radioligand binding, 5-HT1A; conditions: radioligand [3H]8-OH-PDAT, n=4
# T8 construct: purchased NIMH Psychoactive Drug Screening Program (PDSP)
# T8 sequence (P08908 whole entry): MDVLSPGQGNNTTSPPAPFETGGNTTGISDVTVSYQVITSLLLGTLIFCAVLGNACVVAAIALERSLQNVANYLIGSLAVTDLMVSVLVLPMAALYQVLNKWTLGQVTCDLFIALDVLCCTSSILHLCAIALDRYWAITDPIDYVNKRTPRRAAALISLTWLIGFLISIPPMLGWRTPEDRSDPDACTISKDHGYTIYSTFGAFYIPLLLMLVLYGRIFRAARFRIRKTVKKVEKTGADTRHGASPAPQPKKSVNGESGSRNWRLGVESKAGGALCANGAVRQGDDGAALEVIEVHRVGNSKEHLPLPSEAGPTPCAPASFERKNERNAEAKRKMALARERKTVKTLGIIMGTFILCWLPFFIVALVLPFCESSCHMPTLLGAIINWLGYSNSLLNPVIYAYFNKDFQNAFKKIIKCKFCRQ
# [9] = target: T9, Alpha2B (Homo sapiens, UniProt P18089); assay: NIMH PDSP radioligand binding, Alpha2B; conditions: radioligand [3H]rauwolscine, n=4
# T9 construct: purchased NIMH Psychoactive Drug Screening Program (PDSP)
# T9 sequence (P18089 whole entry): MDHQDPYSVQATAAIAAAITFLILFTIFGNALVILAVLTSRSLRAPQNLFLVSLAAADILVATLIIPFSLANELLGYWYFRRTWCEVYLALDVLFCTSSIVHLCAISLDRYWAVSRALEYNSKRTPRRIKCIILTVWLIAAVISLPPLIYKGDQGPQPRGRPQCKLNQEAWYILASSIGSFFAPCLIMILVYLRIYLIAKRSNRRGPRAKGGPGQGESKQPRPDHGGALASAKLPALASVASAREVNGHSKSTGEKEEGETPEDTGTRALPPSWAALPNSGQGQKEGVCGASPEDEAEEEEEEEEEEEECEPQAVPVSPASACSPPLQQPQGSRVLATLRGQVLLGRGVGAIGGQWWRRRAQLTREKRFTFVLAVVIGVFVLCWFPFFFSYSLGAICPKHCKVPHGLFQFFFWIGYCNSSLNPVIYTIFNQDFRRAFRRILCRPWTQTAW
# [10] = target: T10, 5-HT1E (Homo sapiens, UniProt P28566); assay: NIMH PDSP radioligand binding, 5-HT1E; conditions: radioligand [3H]5-HT, n=4
# T10 construct: purchased NIMH Psychoactive Drug Screening Program (PDSP)
# T10 sequence (P28566 whole entry): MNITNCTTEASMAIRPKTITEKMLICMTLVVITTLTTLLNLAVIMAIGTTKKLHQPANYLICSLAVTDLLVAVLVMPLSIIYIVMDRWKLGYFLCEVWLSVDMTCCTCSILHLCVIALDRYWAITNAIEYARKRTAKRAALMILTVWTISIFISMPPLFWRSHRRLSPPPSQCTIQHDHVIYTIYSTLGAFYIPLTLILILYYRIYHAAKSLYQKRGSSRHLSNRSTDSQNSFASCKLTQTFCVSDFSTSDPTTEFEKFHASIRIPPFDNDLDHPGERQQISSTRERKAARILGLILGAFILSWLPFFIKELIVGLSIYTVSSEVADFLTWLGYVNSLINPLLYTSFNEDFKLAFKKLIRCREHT
# [11] = target: T11, M4 (Homo sapiens, UniProt P08173); assay: NIMH PDSP radioligand binding, M4
# T11 construct: purchased NIMH Psychoactive Drug Screening Program (PDSP)
# T11 sequence (P08173 whole entry): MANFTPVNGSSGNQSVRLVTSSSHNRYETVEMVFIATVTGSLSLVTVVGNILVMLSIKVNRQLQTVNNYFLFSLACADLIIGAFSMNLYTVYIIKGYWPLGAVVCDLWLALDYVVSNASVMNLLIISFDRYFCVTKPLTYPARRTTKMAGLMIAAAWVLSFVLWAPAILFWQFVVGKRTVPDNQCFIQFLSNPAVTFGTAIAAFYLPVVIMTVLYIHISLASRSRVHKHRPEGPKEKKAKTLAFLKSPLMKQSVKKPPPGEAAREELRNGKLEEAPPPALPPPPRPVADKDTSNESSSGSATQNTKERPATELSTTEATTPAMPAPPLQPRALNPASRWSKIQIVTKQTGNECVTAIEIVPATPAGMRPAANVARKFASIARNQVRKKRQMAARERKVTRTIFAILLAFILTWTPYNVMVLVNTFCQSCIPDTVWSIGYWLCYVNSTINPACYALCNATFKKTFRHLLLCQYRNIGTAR
# [12] = target: T12, M3 (Homo sapiens, UniProt P20309); assay: NIMH PDSP radioligand binding, M3
# T12 construct: purchased NIMH Psychoactive Drug Screening Program (PDSP)
# [13] = test system: GABAA rat brain; assay: NIMH PDSP radioligand binding, GABAA rat brain; conditions: 10 μM; radioligand [3H]muscimol; n=4
# Experimental: IC50 values in μM (Ki μM)^a. The targets in bold were inhibited by >35% at 10 μM.
# [14] = target: T13, DAT (Homo sapiens, UniProt Q01959); assay: NIMH PDSP radioligand binding, DAT; conditions: radioligand [3H]WIN35428, n=4
# T13 construct: purchased NIMH Psychoactive Drug Screening Program (PDSP)
# T13 sequence (Q01959 whole entry): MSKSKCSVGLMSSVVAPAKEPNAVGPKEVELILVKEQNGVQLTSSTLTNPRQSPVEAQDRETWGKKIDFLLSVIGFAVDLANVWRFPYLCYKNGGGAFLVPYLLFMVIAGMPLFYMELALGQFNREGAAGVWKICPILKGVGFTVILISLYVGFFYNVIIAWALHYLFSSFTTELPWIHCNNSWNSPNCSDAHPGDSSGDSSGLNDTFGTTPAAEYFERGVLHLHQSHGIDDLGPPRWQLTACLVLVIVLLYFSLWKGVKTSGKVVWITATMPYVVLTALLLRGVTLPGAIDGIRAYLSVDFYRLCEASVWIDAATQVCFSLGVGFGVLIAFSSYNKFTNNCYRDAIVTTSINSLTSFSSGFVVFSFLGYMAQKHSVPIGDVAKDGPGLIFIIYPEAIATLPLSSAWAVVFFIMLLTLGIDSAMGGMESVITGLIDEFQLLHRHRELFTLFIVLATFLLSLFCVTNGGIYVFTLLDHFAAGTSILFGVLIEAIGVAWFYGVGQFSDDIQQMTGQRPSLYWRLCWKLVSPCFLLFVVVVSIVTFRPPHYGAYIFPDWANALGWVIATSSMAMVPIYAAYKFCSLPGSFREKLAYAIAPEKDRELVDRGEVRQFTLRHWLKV
compound,measurement,setting,value
"Cc1ccsc1C(=CCCN(C)[C@H]1CCCC[C@H]1C(=O)O)c1sccc1C [SBV2-114, (1R,2S)-2-((4,4-bis(3-methylthiophen-2-yl)but-3-en-yl)(methyl)amino)cyclohexanecarboxylic acid]",inhibition at 10 µM,[1],23.5%
same,inhibition at 10 µM,[2],-3%
same,inhibition at 10 µM,[3],20%
same,inhibition at 10 µM,[4],36.6%
same,IC50,[5],3.8 µM
same,% inhibition (Frac value) at the low IC50,[5]; biphasic fit,45%
same,Fit,"[5]; preferred model, extra-sum-of-squares F test, N=5",Biphasic
same,IC50,"[5]; read-out: IC50, low affinity component (high IC50), biphasic fit, 30 nM [3H]GABA, 3 min, HEK-293",408 µM
same,activity at hBGT1 Y453A,[6],did not show the expected decrease in activity
same,inhibition at 10 µM,"[7]; 10 μM, n=4",77.5%
same,Ki,[7]; full curve,0.67 µM
same,inhibition at 10 µM,[8],-7.9%
same,inhibition at 10 µM,[9],24.9%
same,inhibition at 10 µM,[10],-12.9%
same,inhibition at 10 µM,[11],-5.7%
same,inhibition at 10 µM,[12],55.4%
same,% inhibition,[13],-1.5%
same,inhibition at 10 µM,[14],36.9%
